Test results taken from US8012963B2, “3,4-dihydro-2H-benzo[1,4]oxazine and thiazine derivatives as CETP inhibitors” (Janssen Pharmaceutica N.V., priority 2006, dated 2011).
Several values for one entry are separate records, joined by “and”; a condition that tells them apart may be missing. Identical values can stand only once. Blank lines part the entries; values can stand above or below the compound they belong to.

Legend:
cholesterol-fed hamsters = experiment: CETP in vivo assay: lipid parameters in cholesterol-fed hamsters; parameters: species or system hamster; settings: plasma, mean ± SEM
Procedure: To determine the in vivo efficacy of a test compound, hamsters are first fed a moderately high cholesterol diet (Research Diets, D5012801) for two weeks before commencing treatment. The animals are orally gavaged with the vehicle (10% solutol, 5% ethanol, 85% D5W) and test compound for 5 days with the last dose being administered 2 hrs before sacrifice. Plasma is obtained and lipid parameters (HDL-C, LDL-C, Total Cholesterol, Triglycerides) are measured.

CETP = target: T1, CETP (Homo sapiens, UniProt P11597); experiment: CETP in vitro assay ([3H]CE-HDL transfer, Amersham kit TRKQ7005; modified protocol in human plasma); type: biochemical; settings: multiple values = multiple measurements; for inhibition at 1 µM / % Inhibition @ 1 μM: 1 μM compound
T1 construct: from tissue; host or cells: human plasma from normal volunteers
T1 sequence (P11597 18-493): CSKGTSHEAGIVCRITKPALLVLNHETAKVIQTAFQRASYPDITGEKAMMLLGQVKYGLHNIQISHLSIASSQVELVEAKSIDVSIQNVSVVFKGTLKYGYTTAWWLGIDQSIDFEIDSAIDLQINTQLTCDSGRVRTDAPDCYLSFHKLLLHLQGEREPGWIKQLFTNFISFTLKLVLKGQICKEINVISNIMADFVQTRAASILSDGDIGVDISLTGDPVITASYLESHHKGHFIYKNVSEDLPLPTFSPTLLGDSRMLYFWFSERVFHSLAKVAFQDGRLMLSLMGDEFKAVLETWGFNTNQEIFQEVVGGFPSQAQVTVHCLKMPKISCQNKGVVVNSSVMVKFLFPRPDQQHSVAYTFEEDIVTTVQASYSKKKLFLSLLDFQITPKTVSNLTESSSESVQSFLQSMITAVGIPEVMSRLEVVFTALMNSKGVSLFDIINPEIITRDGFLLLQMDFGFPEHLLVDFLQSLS
How it was run: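 Normal-volunteer human plasma was incubated ≥4 hr at 37 °C with approx. 25 μg/ml [3H]CE-HDL and compound in DMSO, with a 4 °C blank for non-specific transfer. HDL was separated by Dextralip/MgCl2 precipitation and centrifugation, then supernatant radioactivity counted. IC50 came from % control versus concentration.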

[1] = clinical studies; cited from earlier work
rabbits [2] = settings: rabbits with severe hypercholesterolemia; cited from earlier work
rabbits [3] = settings: 30 mg/kg; cited from earlier work

inhibition at 1 µM (CETP): 91%
IC50 (CETP): 0.026 µM
SMILES: O[C@@H](CN1c2cccc(-c3cccc(OC(F)(F)F)c3)c2OC[C@@H]1c1cccc(OC(F)(F)C(F)F)c1)C(F)(F)F [Compound 3, 4H-1,4-Benzoxazine-4-ethanol, 2,3-dihydro-3-[3-(1,1,2,2-tetrafluoroethoxy)phenyl]-8-[3-(trifluoromethoxy)phenyl]-α-(trifluoromethyl)-, (3S,αS)—]
HDL (cholesterol-fed hamsters; 3 mg/kg oral gavage 5 days): 136 ± 6 mg/dL
HDL-C/LDL Ratio (cholesterol-fed hamsters; 3 mg/kg oral gavage 5 days): 3.7 ± 0.2
LDL (cholesterol-fed hamsters; 3 mg/kg oral gavage 5 days): 36 ± 3 mg/dL
Total Cholesterol (cholesterol-fed hamsters; 3 mg/kg oral gavage 5 days): 207 ± 7 mg/dL
Triglycerides (cholesterol-fed hamsters; 3 mg/kg oral gavage 5 days): 278 ± 21 mg/dL
HDL (cholesterol-fed hamsters; 10 mg/kg oral gavage 5 days): 158 ± 10 mg/dL
HDL-C/LDL Ratio (cholesterol-fed hamsters; 10 mg/kg oral gavage 5 days): 5.2 ± 0.4
LDL (cholesterol-fed hamsters; 10 mg/kg oral gavage 5 days): 30 ± 2 mg/dL
Total Cholesterol (cholesterol-fed hamsters; 10 mg/kg oral gavage 5 days): 217 ± 12 mg/dL
Triglycerides (cholesterol-fed hamsters; 10 mg/kg oral gavage 5 days): 282 ± 16 mg/dL
HDL (cholesterol-fed hamsters; 30 mg/kg oral gavage 5 days): 167 ± 5 mg/dL
HDL-C/LDL Ratio (cholesterol-fed hamsters; 30 mg/kg oral gavage 5 days): 6.2 ± 0.3
LDL (cholesterol-fed hamsters; 30 mg/kg oral gavage 5 days): 27 ± 2 mg/dL
Total Cholesterol (cholesterol-fed hamsters; 30 mg/kg oral gavage 5 days): 226 ± 5 mg/dL
Triglycerides (cholesterol-fed hamsters; 30 mg/kg oral gavage 5 days): 300 ± 36 mg/dL

% Inhibition @ 1 μM (CETP): 38%
SMILES: OC(CN1c2cccc(-c3cccc(OC(F)(F)F)c3)c2OCC1c1ccc(OC(F)(F)F)cc1)C(F)(F)F (stereo not drawn) [Compound 97, 1,1,1-Trifluoro-3-[3-(4-trifluoromethoxy-phenyl)-8-(3-trifluoromethoxy-phenyl)-2,3-dihydro-benzo[1,4]oxazin-4-yl]-propan-2-ol]

% Inhibition @ 1 μM (CETP): 10%
SMILES: OC(CN1c2cccc(-c3cccc(OC(F)(F)F)c3)c2OCC1c1ccc(OC(F)(F)F)cc1)C(F)(F)F (stereo not drawn) [Compound 98, 1,1,1-Trifluoro-3-[3-(4-trifluoromethoxy-phenyl)-8-(3-trifluoromethoxy-phenyl)-2,3-dihydro-benzo[1,4]oxazin-4-yl]-propan-2-ol]

% Inhibition @ 1 μM (CETP): 29%
SMILES: COc1cccc(C2COc3c(-c4cccc(OC(F)(F)F)c4)cccc3N2CC(O)C(F)(F)F)c1 (stereo not drawn) [Compound 99, 1,1,1-Trifluoro-3-[3-(3-methoxy-phenyl)-8-(3-trifluoromethoxy-phenyl)-2,3-dihydro-benzo[1,4]oxazin-4-yl]-propan-2-ol]

% Inhibition @ 1 μM (CETP): 6%
SMILES: COc1cccc(C2COc3c(-c4cccc(OC(F)(F)F)c4)cccc3N2CC(O)C(F)(F)F)c1 (stereo not drawn) [Compound 100, 1,1,1-Trifluoro-3-[3-(3-methoxy-phenyl)-8-(3-trifluoromethoxy-phenyl)-2,3-dihydro-benzo[1,4]oxazin-4-yl]-propan-2-ol]

% Inhibition @ 1 μM (CETP): 61% and 63%
IC50 (CETP): 0.214 µM
SMILES: OC(CN1c2cccc(-c3cccc(OC(F)(F)F)c3)c2OCC1c1cccc(Cl)c1)C(F)(F)F (stereo not drawn) [Compound 101, 3-[3-(3-Chloro-phenyl)-8-(3-trifluoromethoxy-phenyl)-2,3-dihydro-benzo[1,4]oxazin-4-yl]-1,1,1-trifluoro-propan-2-ol]

% Inhibition @ 1 μM (CETP): 0%
SMILES: OC(CN1c2cccc(-c3cccc(OC(F)(F)F)c3)c2OCC1c1cccc(Cl)c1)C(F)(F)F (stereo not drawn) [Compound 102, 3-[3-(3-Chloro-phenyl)-8-(3-trifluoromethoxy-phenyl)-2,3-dihydro-benzo[1,4]oxazin-4-yl]-1,1,1-trifluoro-propan-2-ol]

% Inhibition @ 1 μM (CETP): 20%
SMILES: OC(CN1c2cccc(-c3cccc(OC(F)(F)F)c3)c2OCC1c1cccs1)C(F)(F)F (stereo not drawn) [Compound 103, 1,1,1-Trifluoro-3-[3-thiophen-2-yl-8-(3-trifluoromethoxy-phenyl)-2,3-dihydro-benzo[1,4]oxazin-4-yl]-propan-2-ol]

% Inhibition @ 1 μM (CETP): 0%
SMILES: OC(CN1c2cccc(-c3cccc(OC(F)(F)F)c3)c2OCC1c1cccs1)C(F)(F)F (stereo not drawn) [Compound 104, 1,1,1-Trifluoro-3-[3-thiophen-2-yl-8-(3-trifluoromethoxy-phenyl)-2,3-dihydro-benzo[1,4]oxazin-4-yl]-propan-2-ol]

% Inhibition @ 1 μM (CETP): 2%
SMILES: OC(CN1c2cccc(-c3cccc(OC(F)(F)F)c3)c2OCC1c1ccoc1)C(F)(F)F (stereo not drawn) [Compound 105, 1,1,1-Trifluoro-3-[3-furan-3-yl-8-(3-trifluoromethoxy-phenyl)-2,3-dihydro-benzo[1,4]oxazin-4-yl]-propan-2-ol]

% Inhibition @ 1 μM (CETP): 0%
SMILES: OC(CN1c2cccc(-c3cccc(OC(F)(F)F)c3)c2OCC1c1ccoc1)C(F)(F)F (stereo not drawn) [Compound 106, 1,1,1-Trifluoro-3-[3-furan-3-yl-8-(3-trifluoromethoxy-phenyl)-2,3-dihydro-benzo[1,4]oxazin-4-yl]-propan-2-ol]

% Inhibition @ 1 μM (CETP): 59% and 87%
IC50 (CETP): 0.134 µM and 0.198 µM
SMILES: O[C@@H](CN1c2cccc(-c3cccc(OC(F)(F)F)c3)c2SC[C@@H]1c1cccc(OC(F)(F)C(F)F)c1)C(F)(F)F [Compound 107]

inhibition at 1 µM (CETP): 34%
% Inhibition @ 1 μM (CETP): 39%
IC50 (CETP): > 2.92 µM
SMILES: O[C@@H](CN1c2cccc(-c3cccc(OC(F)(F)F)c3)c2SC[C@H]1c1cccc(OC(F)(F)C(F)F)c1)C(F)(F)F [Compound 108]

SMILES: CCC(CC)CC1(C(=O)Nc2ccccc2SC(=O)C(C)C)CCCCC1 [JTT-705]
HDL-C [1]: raise HDL-C
LDL-C [1]: modestly lower LDL-C
triglyceride levels [1]: not alter triglyceride levels
plasma triglycerides (rabbits [2]): significant elevations of plasma triglycerides
prevention of lesion development (rabbits [2]): not efficacious in preventing lesion development
CETP activity (rabbits [3]): inhibited CETP activity
change of HDL-C (rabbits [3]): +90%
change of lesion size (rabbits [3]): −70%
change of non-HDL-C cholesterol (rabbits [3]): −50%
